Data on 1 substance can be found in ChEMBL document CHEMBL1126982, “Design and synthesis of a DNA-cleaving metallopeptide” (Bioorg Med Chem Lett, 1993).

Holding throughout (type): nucleic-acid assay
Experiment [1] has as its system Nucleic Acid. The experiment can be described thus: Cu(II) complex for cleavage of phi X174 RF plasmid DNA from intact form I to nicked form II at 250 uM compound and 100 uM Cu(II).
For experiment [2], the system named is Nucleic Acid. Kind of experiment: Cu(II) complex for cleavage of phi X174 RF plasmid DNA from intact form I to nicked form II at 250 uM compound and 200 uM Cu(II).
Experiment [3] has as its system Nucleic Acid. The experiment can be described thus: Cu(II) complex for cleavage of phi X174 RF plasmid DNA from intact form I to nicked form II at 350 uM of Cu(II).

For H-GGHGYSPTSPSYGK-NH2, the Activity with Nucleic Acid [1] is 50%; in the experiment on Nucleic Acid [2], 70%; in the experiment with Nucleic Acid [3], more than 90%.
